The target in assay [1] is T1, LCK (Homo sapiens, UniProt P06239).
T1 construct: 15 μL of LCK KD GST (225-509) for a final volume of 40 μL; GST
The assay is described as follows: LCK-Homogeneous Time Resolved Fluorescent (HTRF) Kinase Assay. In kind it is biochemical. The procedure: LCK-Homogeneous Time Resolved Fluorescent (HTRF) Kinase Assay
The LCK HTRF assay begins with LCK in the presence of ATP phosphorylating the biotinylated peptide Gastrin. The reaction incubates for 90 min. To quench the assay detection reagents are added which both stop the reaction by diluting out the enzyme and chelating the metals due to the presence of EDTA. Once the detection reagents are added the assay incubates for 30 min to allow for equilibration of the detection reagents.
Buffer conditions are as follows: 50 mM HEPES pH 7.5, 50 mM NaCl, 20 mM MgCl2, 5 mM MnCl2, 2 mM DTT, 0.05% BSA.
The assay is quenched and stopped with 160 μL of a detection reagent. Detection reagents are as follows: Buffer made of 50 mM Tris, pH 7.5, 100 mM NaCl, 3 mM EDTA, 0.05% BSA, 0.1% Tween20.
The assay plate is read in either a Discovery or a RubyStar.
(Time-resolved FRET reads energy transfer from a long-lived donor to a nearby acceptor.)

Assay [2] concerns C8 cells. The assay is described as follows: ACK1 Cell Based Assay (survival under low serum, Cytotox One). The conditions noted are these: read-out: ACK1 Cell-based IC50. The method, then: ACK1 Cell Based Assay The ACK1 cell based assay is designed to find inhibitors of ACK1 kinase activity which would be prime candidates for the development of anticancer drugs. […] After 20 to 24 h incubation at 37° C. and 5% CO2, cell viability is determined using the Cytotox One kit (Promega) according to the manufacturer's instructions.

Assay [3] addresses T2, ACK1 (Homo sapiens, UniProt Q07912).
T2 construct: a fusion of an N-terminal (His)6 Tag with amino acids 117 to 489 of ACK1; (His)6 (N); made in house; host or cells: baculovirus infected Hi-5 insect cells
The assay can be described thus: ACK1 Enzymatic Assay (PGT/autophosphorylation ELISA). In kind it is biochemical. The procedure: IC50 values of compounds of the invention may be assessed as follows. The ACK1 kinase assay utilizes a protein expressed in baculovirus infected Hi-5 cells (a fusion of an N-terminal (His)6 Tag with amino acids 117 to 489 of ACK1) purified by affinity chromatography on a Ni-NTA column. The substrate for the reaction is ACK1 itself (autophosphorylation) and poly-Glutamic acid-Tyrosine (PGT (4:1), Sigma catalog #PO275). The PGT is coated to Nunc 96 well plates at 80 μg/mL overnight at 4° C. The morning after coating, the plates are washed twice, and […] reaction buffer (10 mM Hepes, pH 7.6; 20 mM MgCl2; 75 mM NaCl, 0.125% TWEEN20 (polyoxyethylene sorbitan monolaurate); 1 mM DTT) with 5 μM ATP are added to each well. Test compounds are added in […] DMSO, and the reaction is started by addition of […] kinase in assay buffer. The reaction proceeds for 2 h at room temperature. Next, the plates are washed four times, and the level of tyrosine phosphorylation in a given well is quantified by standard ELISA assay utilizing a phosphotyrosine antibody (PY20, Pierce).
For orientation: An ELISA detects its analyte on a solid surface through an enzyme-linked reagent.

The mark [4] stands for this setting: ACK1-dependent C8 cells, 0.125% FCS, 20 to 24 h.

pIC50, pKi: −log10 of the molar value. Read-outs that look alike come from different tables or passages of the source. Where only a bound is given, the exact number is not on record here.

T2 sequence (Q07912 117-489): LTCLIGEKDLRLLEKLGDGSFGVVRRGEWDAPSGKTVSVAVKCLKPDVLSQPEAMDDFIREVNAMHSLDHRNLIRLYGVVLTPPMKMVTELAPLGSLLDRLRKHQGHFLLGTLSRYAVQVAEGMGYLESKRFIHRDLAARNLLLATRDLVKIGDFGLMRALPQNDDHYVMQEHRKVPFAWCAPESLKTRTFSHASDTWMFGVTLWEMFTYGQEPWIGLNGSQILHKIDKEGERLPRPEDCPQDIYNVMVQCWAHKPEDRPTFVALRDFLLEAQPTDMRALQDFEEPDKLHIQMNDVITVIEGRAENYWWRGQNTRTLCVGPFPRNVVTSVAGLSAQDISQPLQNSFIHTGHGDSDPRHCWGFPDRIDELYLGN
T1 sequence (P06239 225-509): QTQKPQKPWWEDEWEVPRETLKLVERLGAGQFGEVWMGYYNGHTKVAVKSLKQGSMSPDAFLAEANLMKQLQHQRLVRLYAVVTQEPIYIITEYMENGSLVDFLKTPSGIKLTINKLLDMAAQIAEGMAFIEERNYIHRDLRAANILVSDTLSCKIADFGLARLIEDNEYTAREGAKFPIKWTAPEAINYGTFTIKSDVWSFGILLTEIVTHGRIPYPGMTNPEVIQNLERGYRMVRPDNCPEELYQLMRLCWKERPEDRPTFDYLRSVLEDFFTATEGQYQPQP

One may read the pKi as −log10 of the Ki, conventionally taken in molar units. As a reminder, the pIC50 is the IC50 on a negative log10 scale, so that one unit is a factor of ten. As to `Cc1cccc(C)c1Nc1nn(CCN2CCOCC2)c2nc(Nc3ccc(N4CCN(C)CC4)cc3)ncc12` [Compound 53, N^3-(2,6-dimethyl-phenyl)-N^6-[4-(4-methyl-piperazin-1-yl)-phenyl]-1-(2-morpholin-4-yl-ethyl)-1H-pyrazolo[3,4-d]pyrimidine-3,6-diamine], the pKi in assay [1] is over 8.00; in assay [3] it was 7.00 to 8.00. In assay [2] (setting [4]), the negative logarithm of the IC50 (pIC50) was under 7.00.
On the same counts, the results for `COCCOc1ccc(Nc2ncc3c(Nc4c(C)cccc4C)nn(CCC(C)(C)OC)c3n2)cc1` [Compound 54, N^3-(2,6-Dimethyl-phenyl)-N-6-[4-(2-methoxy-ethoxy)-phenyl]-1-(3-methoxy-3-methyl-butyl)-1H-pyrazolo[3,4-d]pyrimidine-3,6-diamine] are over 8.00, 7.00 to 8.00 and under 7.00.
With `COC(C)(C)CCn1nc(Nc2c(C)cccc2C)c2cnc(Nc3ccc(N4CCN(C)CC4)cc3)nc21` [Compound 55, N^3-(2,6-Dimethyl-phenyl)-1-(3-methoxy-3-methyl-butyl)-N-6-[4-(methylpiperazin-1-yl)phenyl]-1H-pyrazolo[3,4-d]pyrimidine-3,6-diamine], the pKi in assay [1] and in assay [3] was over 8.00 each time. In assay [2] (setting [4]), the pIC50 was 7.00 to 8.00.
For `COC(C)(C)CCn1nc(Nc2c(C)cccc2C)c2cnc(Nc3ccc(OCCCN4CCCCC4)c(F)c3)nc21` [Compound 57], the negative logarithm of the Ki (pKi) in assay [1] and in assay [3] was 7.00 to 8.00 throughout. The pIC50 in assay [2] (setting [4]) is 7.00 to 8.00.
Turning to `COC(C)(C)CCn1nc(Nc2c(C)cccc2C)c2ccc(Nc3ccccc3)cc21` [Compound 59], the pKi in assay [1] and in assay [3] was over 8.00 in each case. Further, the pIC50 in assay [2] (setting [4]) was 7.00 to 8.00.
On to `COC(C)(C)CCn1nc(Nc2c(C)cccc2C)c2ccc(Nc3ccc(N4CC(C)NC(C)C4)cc3)cc21` (stereo not drawn) [Compound 60, N^3-(2,6-Dimethylphenyl)-1-N^6-(4-(3,5-dimethylpiperazin-1-yl)phenyl)-1-(3-methoxy-3-methylbutyl)-1H-indazole-3,6-diamine], for which the pKi in assay [1] and in assay [3] was over 8.00 each time. Further, the pIC50 in assay [2] (setting [4]) was 7.00 to 8.00.
Turning to `Cc1cccc(C)c1Nc1nn(CC2CCOCC2)c2nc(Nc3ccc(N4CCNCC4)cc3)ncc12` [Compound 61], the pKi in assay [1] and in assay [3] was over 8.00 in each case. For the same molecule, the pIC50 in assay [2] (setting [4]) was over 8.00.
Turning to `Cc1cccc(C)c1Nc1nn(CC2CCOCC2)c2nc(Nc3ccc(OCCCN4CCCCC4)c(F)c3)ncc12` [Compound 62], the pKi in assay [1] and in assay [3] was over 8.00 throughout. Besides, the pIC50 in assay [2] (setting [4]) was 7.00 to 8.00.
On to `COC[C@H]1CCCN1CCCn1nc(Nc2c(C)cccc2C)c2ccc(Nc3ccc(N4CCNCC4)cc3)cc21` [Compound 67, (R)—N^3-(2,6-Dimethylphenyl)-1-(3-(2-(methoxymethyl)pyrrolidin-1-yl)propyl)-N^6-(4-piperazin-1-yl)phenyl-1H-indazole-3,6-diamine], for which the pKi in assay [1] and in assay [3] was over 8.00 each time. Moreover, the pIC50 in assay [2] (setting [4]) is 7.00 to 8.00.
Take `COC(C)(C)CCn1nc(Nc2ccccc2)c2cnc(Nc3ccccc3)nc21` [Compound 74, 1-(3-Methoxy-3-methyl-butyl)-N^3, N^6-diphenyl-1H-pyrazolo[3,4-d]pyrimidine-3,6-diamine]: the pKi in assay [1] and in assay [3] was under 7.00 throughout. Besides, in assay [2], the pIC50 is under 7.00.
With `COC(C)(C)CCn1nc(Nc2ccccc2)c2cnc(Nc3ccc(N4CCN(C)CC4)cc3)nc21` [Compound 75], the pKi in assay [1] was 7.00 to 8.00; in assay [3] it was under 7.00. In addition, the pIC50 in assay [2] was under 7.00.
With `COC(C)(C)CCn1nc(Nc2c(C)cc(C)cc2C)c2cnc(Nc3ccccc3)nc21` [Compound 76, 1-(3-Methoxy-3-methyl-butyl)-N^6-phenyl-N^3-(2,4,6-trimethyl-phenyl)-1H-pyrazolo[3,4-d]pyrimidine-3,6-diamine], the pKi in assay [1] is over 8.00; in assay [3], under 7.00. In assay [2], the pIC50 is under 7.00.
`COC(C)(C)CCn1nc(Nc2c(C)cc(C)cc2C)c2cnc(Nc3ccc(N4CCN(C)CC4)cc3)nc21` [Compound 77]: the values for the pKi in assay [1] and in assay [3] were over 8.00 and 7.00 to 8.00, respectively. Also, the pIC50 in assay [2] was 7.00 to 8.00.
On to `COC(C)(C)CCn1nc(Nc2c(C)cc(F)cc2C)c2cnc(Nc3ccccc3)nc21` [Compound 78, N^3-(4-Fluoro-2,6-dimethyl-phenyl)-1-(3-methoxy-3-methyl-butyl)-N^6-phenyl-1H-pyrazolo[3,4-d]pyrimidine-3,6-diamine], for which the results for the pKi in assay [1] and in assay [3] were over 8.00 and 7.00 to 8.00, respectively. Moreover, the pIC50 in assay [2] is under 7.00.
Take `COC(C)(C)CCn1nc(Nc2c(C)cc(F)cc2C)c2cnc(Nc3ccc(N4CCN(C)CC4)cc3)nc21` [Compound 79, N^3-(4-Fluoro-2,6-dimethyl-phenyl)-1-(3-methoxy-3-methyl-butyl)-N^6-[4-(4-methyl-piperazin-1-yl)-phenyl]-1H-pyrazolo[3,4-d]pyrimidine-3,6-diamine]: the values for the pKi in assay [1] and in assay [3] were over 8.00 and 7.00 to 8.00, respectively. Further, the pIC50 in assay [2] (setting [4]) is 7.00 to 8.00.
Consider `COC(C)(C)CCn1nc(Nc2c(Cl)cccc2Cl)c2ccc(Nc3ccc(N4CCN(C(=O)OCC5c6ccccc6-c6ccccc65)CC4)cc3)cc21` [Compound 81, (9H-Fluoren-9-yl)methyl 4-(4-(3-(2,6-dichlorophenylamino)-1-(3-methoxy-3-methyl-butyl)-1H-indazol-6-ylamino)phenyl)piperazine-1-carboxylate], for which the pKi is over 8.00 in assay [1] and 7.00 to 8.00 in assay [3]. In addition, in assay [2], the pIC50 was under 7.00.
Regarding `COC(C)(C)CCn1nc(Nc2c(Cl)cccc2Cl)c2cnc(Nc3ccc(OCCN4CCCC4)c(F)c3)nc21` [Compound 82, N^3-(2,6-Dichlorophenyl)-N^6-(3-fluoro-4-(2-(pyrrolidin-1-yl)ethoxy)phenyl)-1-(3-methoxy-3-methylbutyl)-1H-pyrazolo[3,4-d]pyrimidine-3,6-diamine], the pKi in assay [1] and in assay [3] was over 8.00 each time. Besides, the pIC50 in assay [2] is 7.00 to 8.00.
For the molecule `COC(C)(C)CCn1nc(Nc2c(Cl)cccc2Cl)c2ccc(Nc3ccc(N4CCNCC4)cc3)cc21` [Compound 84], the values for the pKi in assay [1] and in assay [3] were over 8.00 and 7.00 to 8.00, respectively. Further, in assay [2] (setting [4]), the pIC50 was 7.00 to 8.00.
Regarding `C=CCCn1nc(Nc2c(Cl)cccc2Cl)c2cnc(Nc3ccccc3)nc21` [Compound 87, 1-(But-3-enyl)-N^3-(2,6-dichlorophenyl)-N^6-phenyl-1H-pyrazolo[3,4-d]pyrimidine-3,6-diamine], the pKi in assay [1] was over 8.00; in assay [3] it was 7.00 to 8.00. In assay [2] (setting [4]), the pIC50 was under 7.00.
In the same order, the values of `OCC(O)CCn1nc(Nc2c(Cl)cccc2Cl)c2cnc(Nc3ccccc3)nc21` (stereo not drawn) [Compound 88, 4-(3-(2,6-dichlorophenylamino)-6-(phenylamino)-1H-pyrazolo[3,4-d]pyrimidin-1-yl)butane-1,2-diol] are over 8.00, 7.00 to 8.00 and 7.00 to 8.00.
In the same order, the values of `CN(C)CCCn1nc(Nc2c(Cl)cccc2Cl)c2cnc(Nc3ccccc3)nc21` [Compound 89, N^3-(2,6-Dichlorophenyl)-1-(3-(dimethylamino)propyl)-N^6-phenyl-1H-pyrazolo[3,4-d]pyrimidine-3,6-diamine] are over 8.00, over 8.00 and 7.00 to 8.00.
On the same counts, the results for `Clc1cccc(Cl)c1Nc1nn(CCC2CCNCC2)c2nc(Nc3ccccc3)ncc12` [Compound 94, N^3-(2,6-dichlorophenyl)-N^6-phenyl-1-(2-(piperidin-4-yl)ethyl)-1H-pyrazolo[3,4-d]pyrimidine-3,6-diamine] are over 8.00, 7.00 to 8.00 and under 7.00.
Turning to “(R)—N^3-(2,6-Dimethylphenyl)-1-(3-(2-(methoxymethyl)pyrrolidin-1-yl)propyl)-1H-indazole-3,6-diamine [Compound 68]”, the pKi in assay [1] is 7.00 to 8.00; in assay [3] it was under 7.00. In addition, in assay [2] (setting [4]), the pIC50 is under 7.00.
Consider “(R)—N^3-(2,6-Dimethylphenyl)-1-(3-(2-(methoxymethyl)pyrrolidin-1-yl)propyl)-N^6-phenyl-1H-indazole-3,6-diamine [Compound 66]”, for which the values for the pKi in assay [1] and in assay [3] were over 8.00 and under 7.00, respectively. Also, the pIC50 in assay [2] (setting [4]) was under 7.00.

Source of the values: patent US7763624B2, “Substituted pyrazolo[3,4-d]pyrimidines as ACK-1 and LCK inhibitors” (Amgen Inc., priority 2005, dated 2010).
